According to paper PMC10821229, “Synthesis and Antiviral Activity of Novel β-D-N4-Hydroxycytidine Ester Prodrugs as Potential Compounds for the Treatment of SARS-CoV-2 and Other Human Coronaviruses” (Pharmaceuticals, 2023):
Entries after “also recorded” stand apart in the source; their conditions may differ.

Test system: HCoV-229E and three SARS-CoV-2 variants
Test: Antiviral effect against all tested coronavirus variants (text comparisons)
Format: cell-based, human coronavirus
Conditions: for antiviral effect against all tested coronavirus variants (in words): HCoV-229E and three SARS-CoV-2 variants

| Compound | antiviral effect against all tested coronavirus variants (in words) | other results |
| --- | --- | --- |
| Cc1cccc(OCC(=O)OC[C@H]2O[C@@H](n3ccc(NO)nc3=O)[C@H](O)[C@@H]2O)c1 [SN_22, 5′-O-(3-Methylphenoxy)acetyl-N4-hydroxycytidine] | highest activity |  |
| O=C(OC[C@H]1O[C@@H](n2ccc(NO)nc2=O)[C@H](O)[C@@H]1O)C1(c2ccccc2)CC1 [SN_20, 5′-O-(1-Phenylcyclopropanoyl-1-carbonyl)-N4-hydroxycytidine] | no antiviral effect; also recorded: lowest activity |  |
| COc1cccc(CCC(=O)OC[C@H]2O[C@@H](n3ccc(NO)nc3=O)[C@H](O)[C@@H]2O)c1 [SN_23, 5′-O-3-(3-Methoxyphenyl)propanoyl-N4-hydroxycytidine] |  | times higher antiviral effect than SN_15 and SN_16 (compared with SN_15 and SN_16): 2–6 times |
| O=C(Cc1ccccc1F)OC[C@H]1O[C@@H](n2ccc(NO)nc2=O)[C@H](O)[C@@H]1O [SN_17, 5′-O-(2-Fluorophenyl)acetyl-N4-hydroxycytidine] |  | fold increase in antiviral activity compared to SN_18 (compared with 4-fluoro substituted conjugate SN_18): ≥ 2 fold |
